This assay concerns the target T1, human CCR6 (Homo sapiens, UniProt P51684).
T1 construct: expressed in transfected cells; host or cells: Ba/F3 cells (mouse pro-B line)
T1 sequence (P51684 1-374): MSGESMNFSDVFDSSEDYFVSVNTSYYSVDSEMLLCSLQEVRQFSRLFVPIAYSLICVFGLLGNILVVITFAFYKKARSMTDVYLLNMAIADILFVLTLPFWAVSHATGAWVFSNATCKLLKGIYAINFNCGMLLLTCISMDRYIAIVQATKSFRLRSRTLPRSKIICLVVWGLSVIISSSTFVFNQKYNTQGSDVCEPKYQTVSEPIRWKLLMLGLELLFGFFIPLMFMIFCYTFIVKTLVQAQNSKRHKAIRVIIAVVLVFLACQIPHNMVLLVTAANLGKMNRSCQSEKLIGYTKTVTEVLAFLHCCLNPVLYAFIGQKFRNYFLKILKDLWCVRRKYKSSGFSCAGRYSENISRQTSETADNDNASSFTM
The experiment in a line: Migration assay (chemotaxis, ChemoTX). The following applies: hCCR6-transfected Ba/F3 cells in human serum, migration to recombinant human CCL20 10 nM, 37° C. 45 minutes; read-out: Potency (IC50 value in the migration assay). The format is cell-based. An outline of the steps: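 Ba/F3 cells transfected with human CCR6 and butyrate-primed for 24 h were suspended at 4 million/ml in human serum with compound, serially diluted from a 1 μM final top concentration. Cells migrated through a 5-μm polycarbonate membrane toward 10 nM human CCL20 for 45 min at 37 °C. Migrated cells were quantified by CyQUANT fluorescence.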
On to `O=C1CCc2cc(-c3ccc(S(=O)(=O)N4CC[C@@H](Nc5ccc(C(F)(F)F)cn5)[C@@H](O)C4)cc3)ccc2N1` [Example 2, 6-(4-(((3S,4R)-3-hydroxy-4-((5-(trifluoromethyl)pyridin-2-yl)amino)piperidin-1-yl)sulfonyl)phenyl)-3,4-dihydroquinolin-2(1H)-one], for which the IC50 was under 1 nM.
The value for `O=C1NCCc2ccc(-c3ccc(S(=O)(=O)N4CC[C@@H](Nc5ccc(C(F)(F)F)cn5)[C@@H](O)C4)cc3)cc21` [Example 3, 7-(4-(((3S,4R)-3-hydroxy-4-((5-(trifluoromethyl)pyridin-2-yl)amino)piperidin-1-yl)sulfonyl)phenyl)-3,4-dihydroisoquinolin-1(2H)-one] was under 1 nM.
Take `NC(=O)N1Cc2ccc(-c3ccc(S(=O)(=O)N4CC[C@@H](Nc5ccc(C(F)(F)F)cn5)[C@@H](O)C4)cc3)cc2C1` [Example 4, 5-(4-(((3S,4R)-3-hydroxy-4-((5-(trifluoromethyl)pyridin-2-yl)amino)piperidin-1-yl)sulfonyl)phenyl)isoindoline-2-carboxamide]: the IC50 is under 1 nM.
The same measure for `O=c1[nH]ncc2cc(-c3ccc(S(=O)(=O)N4CC[C@@H](Nc5ccc(C(F)(F)F)cn5)[C@@H](O)C4)cc3)ccc12` [Example 5, 6-(4-(((3S,4R)-3-hydroxy-4-((5-(trifluoromethyl)pyridin-2-yl)amino)piperidin-1-yl)sulfonyl)phenyl)phthalazin-1(2H)-one]: under 1 nM; for `Cc1c(-c2ccc(S(=O)(=O)N3CC[C@@H](Nc4ccc(C(F)(F)F)cn4)[C@@H](O)C3)cc2)ccnc1C(N)=O` [Example 6, 4-(4-(((3S,4R)-3-Hydroxy-4-((5-(trifluoromethyl)pyridin-2-yl)amino)piperidin-1-yl)sulfonyl)phenyl)-3-methylpicolinamide]: under 1 nM.
The same measure for `NC(=O)c1cccc(-c2ccc(S(=O)(=O)N3CC[C@@H](Nc4ccc(C(F)(F)F)cn4)[C@@H](O)C3)cc2)n1` [Example 7, 6-(4-(((3S,4R)-3-Hydroxy-4-((5-(trifluoromethyl)pyridin-2-yl)amino)piperidin-1-yl)sulfonyl)phenyl)picolinamide]: under 1 nM.
Turning to `O=C1Cc2ccc(-c3ccc(S(=O)(=O)N4CC[C@@H](Nc5ccc(C(F)(F)F)cn5)[C@@H](O)C4)cc3)cc2CN1` [Example 8, 7-(4-(((3S,4R)-3-hydroxy-4-((5-(trifluoromethyl)pyridin-2-yl)amino)piperidin-1-yl)sulfonyl)phenyl)-1,4-dihydroisoquinolin-3(2H)-one], the IC50 was under 1 nM.
In the case of `O=C1Cc2ccc(-c3ccc(S(=O)(=O)N4CC[C@@H](Nc5ccc(C(F)(F)F)cn5)[C@@H](O)C4)cc3)cc2N1` [Example 9, 6-(4-(((3S,4R)-3-hydroxy-4-((5-(trifluoromethyl)pyridin-2-yl)amino)piperidin-1-yl)sulfonyl)phenyl)indolin-2-one], the IC50 was under 1 nM.
The value for `O=S(=O)(c1ccc(-c2ccnc(CO)c2)cc1)N1CC[C@@H](Nc2ccc(C(F)(F)F)cn2)[C@@H](O)C1` [Example 10, (3S,4R)-1-((4-(2-(hydroxymethyl)pyridin-4-yl)phenyl)sulfonyl)-4-((5-(trifluoromethyl)pyridin-2-yl)amino)piperidin-3-ol] was 1 to 10 nM; that for `Cc1nnc(-c2cc(-c3ccc(S(=O)(=O)N4CC[C@@H](Nc5ccc(C(F)(F)F)cn5)[C@@H](O)C4)cc3)ccn2)o1` [Example 11, (3S,4R)-1-((4-(2-(5-methyl-1,3,4-oxadiazol-2-yl)pyridin-4-yl)phenyl)sulfonyl)-4-((5-(trifluoromethyl)pyridin-2-yl)amino)piperidin-3-ol] was under 1 nM; that for `O=C1NCc2cc(-c3ccc(S(=O)(=O)N4CC[C@@H](Nc5ccc(C(F)(F)F)cn5)[C@@H](O)C4)cc3)ccc21` [Example 12, 5-(4-(((3S,4R)-3-hydroxy-4-((5-(trifluoromethyl)pyridin-2-yl)amino)piperidin-1-yl)sulfonyl)phenyl)isoindolin-1-one] was under 1 nM.

These data come from US12018016B2, “Aryl sulfonyl (hydroxy) piperidines as CCR6 inhibitors” (CHEMOCENTRYX, INC., priority 2021, dated 2024).
